Test results taken from patent US20250051338A1, “TYK2 DEGRADERS AND USES THEREOF” (Kymera Therapeutics, Inc., priority 2021, published 2025).

Assays:
Assay type in all cases: cell-based
TYK2 [1] = target: T1, TYK2 (Homo sapiens, UniProt P29597); test: TYK2 degradation MSD assay in human PBMC cells; set-up: endogenous in cells; host or cells: human PBMC; conditions: 4 to 24 hours incubation, read-out: TYK2 MSD DC50 rating in human PBMC
In short: (§1)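 MSD electrochemiluminescence readout of residual TYK2 in RIPA lysates after 4–24 h compound exposure at 37° C. Dosing: 9 concentrations, 1:3 steps, top 1 to 10 μM. DC50 fitted by four-parameter inhibitor vs. response regression.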

TYK2 [2] = target: T1, TYK2; test: TYK2 degradation MSD assay in EBV-B cells; set-up: endogenous in cells; host or cells: EBV-B cells; conditions: 4 to 24 hours incubation, read-out: TYK2 MSD DC50 rating in EBV-B
In short: as §1

TYK2 [3] = target: T1, TYK2; test: TYK2 degradation MSD assay in OCI-LY10 cells; set-up: endogenous in cells; host or cells: EBV-B cells; conditions: 4 to 24 hours incubation, read-out: TYK2 MSD DC50 rating in OCI-LY10
In short: as §1

T1 sequence (P29597 whole entry): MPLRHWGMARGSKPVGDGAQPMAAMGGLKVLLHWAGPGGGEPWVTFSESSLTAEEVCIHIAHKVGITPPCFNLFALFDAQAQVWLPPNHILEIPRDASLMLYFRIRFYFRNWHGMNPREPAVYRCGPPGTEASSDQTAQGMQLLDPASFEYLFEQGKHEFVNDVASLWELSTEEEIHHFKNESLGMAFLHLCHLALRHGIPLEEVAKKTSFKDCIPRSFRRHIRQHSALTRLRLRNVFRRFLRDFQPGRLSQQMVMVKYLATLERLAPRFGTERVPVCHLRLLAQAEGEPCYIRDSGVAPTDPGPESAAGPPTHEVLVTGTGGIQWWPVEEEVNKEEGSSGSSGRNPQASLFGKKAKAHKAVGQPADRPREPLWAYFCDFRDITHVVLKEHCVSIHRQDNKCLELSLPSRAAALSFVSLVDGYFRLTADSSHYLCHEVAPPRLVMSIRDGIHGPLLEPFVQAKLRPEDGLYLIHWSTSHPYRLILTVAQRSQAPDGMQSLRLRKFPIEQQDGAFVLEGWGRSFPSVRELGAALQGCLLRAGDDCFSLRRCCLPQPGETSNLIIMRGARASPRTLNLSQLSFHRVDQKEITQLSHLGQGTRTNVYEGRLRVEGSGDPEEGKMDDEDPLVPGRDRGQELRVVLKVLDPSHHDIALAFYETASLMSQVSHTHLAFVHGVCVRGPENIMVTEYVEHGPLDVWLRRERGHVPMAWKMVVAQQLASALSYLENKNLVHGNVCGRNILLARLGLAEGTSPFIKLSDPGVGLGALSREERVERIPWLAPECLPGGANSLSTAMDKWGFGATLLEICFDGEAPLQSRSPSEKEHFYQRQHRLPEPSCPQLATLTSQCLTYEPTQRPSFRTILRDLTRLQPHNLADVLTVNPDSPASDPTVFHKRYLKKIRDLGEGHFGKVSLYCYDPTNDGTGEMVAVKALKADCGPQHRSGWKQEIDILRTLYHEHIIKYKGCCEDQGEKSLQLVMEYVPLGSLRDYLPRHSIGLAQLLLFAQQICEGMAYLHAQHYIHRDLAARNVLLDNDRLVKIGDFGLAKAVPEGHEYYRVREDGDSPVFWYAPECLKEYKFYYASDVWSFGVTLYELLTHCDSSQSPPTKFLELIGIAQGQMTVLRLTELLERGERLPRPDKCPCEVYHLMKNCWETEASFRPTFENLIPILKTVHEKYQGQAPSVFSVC

DC50 (TYK2 [1]) [nM] | DC50 (TYK2 [2]) [nM] | DC50 (TYK2 [3]) [nM] | Structure (SMILES)
> 100 | > 100 | 1 to 10 | CNc1cc(Nc2cc(F)cc(-c3ccc(CN4CCN(c5ccc(-c6ccc7c(c6)n(C)c(=O)n7C6CCC(=O)NC6=O)cc5)CC4)cn3)c2OC)nn2c(C(=O)N[C@@H]3C[C@@H]3F)cnc12 (stereo partly drawn) [Example K577]
> 100 | > 100 | > 100 | CNc1cc(Nc2cccc(CN3CCC(c4cccc5c4n(C)c(=O)n5C4CCC(=O)NC4=O)CC3)c2)nn2c(C(=O)NC3CC3)cnc12 (stereo not drawn) [Example K578]
> 100 | > 100 | > 100 | CNc1cc(Nc2cccc(CN3CCC34CN(c3ncc(C#Cc5ccc6c(c5)n(C)c(=O)n6C5CCC(=O)NC5=O)cn3)C4)c2)nn2c(C(=O)NC3CC3)cnc12 (stereo not drawn) [Example K580]
> 100 | > 100 | < 1 | CNc1cc(Nc2cccc(CN3CCC([C@@H]4CCN(c5ccc6c(c5)n(C)c(=O)n6C5CCC(=O)NC5=O)C4)CC3)c2)nn2c(C(=O)NC3CC3)ncc12 (stereo partly drawn) [Example K581]
> 100 | > 100 | > 100 | CNc1cc(Nc2cccc(CN3CCC4(CCCN(CCC5C=c6c(n(C7CCC(=O)NC7=O)c(=O)n6C)=CC5)C4)C3)c2)nn2c(C(=O)NC3CC3)cnc12 (stereo not drawn) [Example K582]
> 100 | > 100 | < 1 | CNc1cc(Nc2cccc(CN3CCC(N(C)CC4CCN(c5ccc(-c6ccc7c(c6)n(C)c(=O)n7C6CCC(=O)NC6=O)cc5)C4)CC3)c2)nn2c(C(=O)NC3CC3)cnc12 (stereo not drawn) [Example K583]
> 100 | > 100 | > 100 | CNc1cc(Nc2cccc(CN3CCC4(CC3)CC(Cc3ccc5c(c3)n(C)c(=O)n5C3CCC(=O)NC3=O)C4)c2)nn2c(C(=O)NC3CC3)cnc12 (stereo not drawn) [Example K584]
> 100 | > 100 | 1 to 10 | CNc1cc(Nc2cccc(CN3CCC(c4ncc(-c5ccc6c(c5)n(C)c(=O)n6C5CCC(=O)NC5=O)cn4)CC3)c2)nn2c(C(=O)NC3CC3)cnc12 (stereo not drawn) [Example K585]
> 100 | > 100 | 1 to 10 | CNc1cc(Nc2cccc(CN3CC4(CCN(c5ccc(-c6ccc7c(c6)n(C)c(=O)n7C6CCC(=O)NC6=O)cn5)CC4)C3)c2)nn2c(C(=O)NC3CC3)cnc12 (stereo not drawn) [Example K586]
> 100 | > 100 | 1 to 10 | CNc1cc(Nc2cccc(CN3CCN(C(=O)CCc4ccc(-c5ccc6c(c5)n(C)c(=O)n6C5CCC(=O)NC5=O)cc4)CC3)c2)nn2c(C(=O)NC3CC3)cnc12 (stereo not drawn) [Example K587]
> 100 | > 100 | 1 to 10 | CNc1cc(Nc2cccc(CN3CCC4(CCN(c5ccc(-c6ccc7c(c6)n(C)c(=O)n7C6CCC(=O)NC6=O)cc5)C4)C3)c2)nn2c(C(=O)NC3CC3)cnc12 (stereo not drawn) [Example K588]
> 100 | > 100 | < 1 | CNc1cc(Nc2cccc(CN3CCC(N4CC(N5CCN(c6ccc7c(c6)n(C)c(=O)n7C6CCC(=O)NC6=O)CC5)C4)CC3)c2)nn2c(C(=O)NC3CC3)cnc12 (stereo not drawn) [Example K589]
> 100 | > 100 | < 1 | CNc1cc(Nc2cccc(CN3CCC(OC4CC(c5cccc6c5n(C)c(=O)n6C5CCC(=O)NC5=O)C4)CC3)c2)nn2c(C(=O)NC3CC3)cnc12 (stereo not drawn) [Example K590]
> 100 | > 100 | > 100 | CNc1cc(Nc2cccc(CN3CCN(c4ccc5c(c4)n(C)c(=O)n5C4CCC(=O)NC4=O)CC3)c2)nn2c(C(=O)NC3CC3)cnc12 (stereo not drawn) [Example K591]
> 100 | > 100 | 1 to 10 | CNc1cc(Nc2cccc(CN3CC4(CCN(c5cccc6c5n(C)c(=O)n6C5CCC(=O)NC5=O)CC4)C3)c2)nn2c(C(=O)NC3CC3)cnc12 (stereo not drawn) [Example K592]
> 100 | > 100 | > 100 | CNc1cc(Nc2cccc(CN(C)C3CCN(c4ccc5c(c4)n(C)c(=O)n5C4CCC(=O)NC4=O)CC3)c2)nn2c(C(=O)NC3CC3)cnc12 (stereo not drawn) [Example K593]
> 100 | > 100 | > 100 | CNc1cc(Nc2cccc(CN3CCN(c4cccc5c4n(C)c(=O)n5C4CCC(=O)NC4=O)CC3)c2)nn2c(C(=O)NC3CC3)cnc12 (stereo not drawn) [Example K594]
> 100 | > 100 | 1 to 10 | CNc1cc(Nc2cccc(CN3CCC(OCC#Cc4cccc5c4n(C)c(=O)n5C4CCC(=O)NC4=O)CC3)c2)nn2c(C(=O)NC3CC3)cnc12 (stereo not drawn) [Example K595]
> 100 | > 100 | < 1 | CNc1cc(Nc2cccc(CN3CCC(OC4CC(c5ccc6c(c5)n(C)c(=O)n6C5CCC(=O)NC5=O)C4)CC3)c2)nn2c(C(=O)NC3CC3)cnc12 (stereo not drawn) [Example K596]

DC50 (TYK2 [1]) [nM] | DC50 (TYK2 [2]) [nM] | DC50 (TYK2 [3]) [nM] | Structure (SMILES)
> 100 | > 100 | > 100 | CNc1cc(Nc2cccc(CN(C)C3CCN(c4cccc5c4n(C)c(=O)n5C4CCC(=O)NC4=O)CC3)c2)nn2c(C(=O)NC3CC3)cnc12 (stereo not drawn) [Example K597]
> 100 | > 100 | > 100 | CNC(=O)c1cnc(Nc2ccc(C(=O)NCCCCCCCCc3cc(N4CCCC(C(=O)Nc5ccc(=O)n(CC(=O)OC)c5)C4)ccn3)cn2)cc1Nc1cccc(-c2ncc(F)cn2)c1OC (stereo not drawn) [Example K598]
> 100 | > 100 | > 100 | CNc1cc(Nc2cccn(-c3ccc(C(=O)NCCCCCCCCc4cncc(N5CCC[C@H](C(=O)Nc6ccc(=O)n(CC(=O)OC)c6)C5)c4)cn3)c2=O)nn2c(C(=O)N[C@@H]3C[C@@H]3F)cnc12 [Example K599]
> 100 | > 100 | > 100 | CNc1cc(Nc2cccc(CN3CCC4(CC3)CCN(c3ccc5c(c3)[nH]c(=O)n5C3CCC(=O)NC3=O)C4)c2)nn2c(C(=O)NC3CC3)cnc12 (stereo not drawn) [Example K601]
> 100 | > 100 | > 100 | CNc1cc(Nc2cccc(CN3CCN(Cc4ccc5c(c4)n(C)c(=O)n5C4CCC(=O)NC4=O)CC3)c2)nn2c(C(=O)NC3CC3)cnc12 (stereo not drawn) [Example K602]
> 100 | > 100 | 1 to 10 | CNc1cc(Nc2cccc(CN3CC(N4CCN(c5ccc6c(c5)n(C)c(=O)n6C5CCC(=O)NC5=O)CC4)C3)c2)nn2c(C(=O)NC3CC3)cnc12 (stereo not drawn) [Example K603]
> 100 | > 100 | < 1 | CNc1cc(Nc2cccc(CN3CC4(C3)CN(c3ncc(C#Cc5ccc6c(c5)n(C)c(=O)n6C5CCC(=O)NC5=O)cn3)C4)c2)nn2c(C(=O)NC3CC3)cnc12 (stereo not drawn) [Example K604]
> 100 | > 100 | > 100 | CNc1cc(Nc2cccc(CN(C)Cc3ccc(-c4ccc5c(c4)n(C)c(=O)n5C4CCC(=O)NC4=O)cn3)c2)nn2c(C(=O)NC3CC3)cnc12 (stereo not drawn) [Example K605]
> 100 | > 100 | > 100 | CNc1cc(Nc2cccc(CN3CCC(CN(C)c4ccc5c(c4)n(C)c(=O)n5C4CCC(=O)NC4=O)CC3)c2)nn2c(C(=O)NC3CC3)cnc12 (stereo not drawn) [Example K606]
> 100 | > 100 | > 100 | CNc1cc(Nc2cccc(CN3CC(C)(Cc4ccc5c(c4)n(C)c(=O)n5C4CCC(=O)NC4=O)C3)c2)nn2c(C(=O)NC3CC3)cnc12 (stereo not drawn) [Example K607]
> 100 | > 100 | 1 to 10 | CNc1cc(Nc2cccc(CN3CCCC4(C3)CN(c3ncc(C#Cc5ccc6c(c5)n(C)c(=O)n6C5CCC(=O)NC5=O)cn3)C4)c2)nn2c(C(=O)NC3CC3)cnc12 (stereo not drawn) [Example K608]
> 100 | > 100 | 1 to 10 | CNc1cc(N2CCc3c(-c4ccc(CN5CCC6(CC5)CCN(c5ccc(-c7ccc8c(c7)n(C)c(=O)n8C7CCC(=O)NC7=O)cc5)CC6)cn4)cccc32)nn2c(C(=O)N[C@@H]3C[C@@H]3F)cnc12 (stereo partly drawn) [Example K609]
> 100 | > 100 | > 100 | CNc1cc(Nc2cccc(CN3CC4(C3)CN(c3ccc(-c5ccc6c(c5)n(C)c(=O)n6C5CCC(=O)NC5=O)cc3)C4)c2OC)nn2c(C(=O)N[C@@H]3C[C@@H]3F)cnc12 (stereo partly drawn) [Example K610]
> 100 | > 100 | 1 to 10 | CNc1cc(Nc2cccc(-c3ccc(CN4CCN(c5ccc(-c6ccc7c(c6)n(C)c(=O)n7C6CCC(=O)NC6=O)cc5)CC4)cn3)c2C(F)F)nn2c(C(=O)N[C@@H]3C[C@@H]3F)cnc12 (stereo partly drawn) [Example K611]
> 100 | > 100 | 10 to 100 | CNc1cc(Nc2cccc(CN3CCN(CCc4ccc5c(c4)n(C)c(=O)n5C4CCC(=O)NC4=O)CC3)c2)nn2c(C(=O)NC3CC3)cnc12 (stereo not drawn) [Example K612]
> 100 | > 100 | 1 to 10 | CNc1cc(Nc2cccc(CN3CCN(CCc4ccc5c(c4)n(C)c(=O)n5C4CCC(=O)NC4=O)CC3)c2)nn2c(C(=O)NC3CC3)cnc12 (stereo not drawn) [Example K613]
> 100 | > 100 | > 100 | CNc1cc(Nc2cccc(CN3CC4(CCN(c5ccc6c(c5)n(C)c(=O)n6C5CCC(=O)NC5=O)CC4)C3)c2)nn2c(C(=O)NC3CC3)cnc12 (stereo not drawn) [Example K614]
> 100 | > 100 | > 100 | CNc1cc(Nc2cccc(-c3ccc(CN4CCN(c5ccc(-c6ccc7c(c6)n(C)c(=O)n7C6CCC(=O)NC6=O)cc5)CC4)cn3)c2OC)nn2ccnc12 (stereo not drawn) [Example K615]
